Structures can show the parent of a compound that is named as a salt.
Target: α7-subtype of nicotinic receptors (Rattus norvegicus, UniProt Q05941)
Assay: biochemical
Assay type: binding

Chain of α7-subtype of nicotinic receptors (Q05941 23-502): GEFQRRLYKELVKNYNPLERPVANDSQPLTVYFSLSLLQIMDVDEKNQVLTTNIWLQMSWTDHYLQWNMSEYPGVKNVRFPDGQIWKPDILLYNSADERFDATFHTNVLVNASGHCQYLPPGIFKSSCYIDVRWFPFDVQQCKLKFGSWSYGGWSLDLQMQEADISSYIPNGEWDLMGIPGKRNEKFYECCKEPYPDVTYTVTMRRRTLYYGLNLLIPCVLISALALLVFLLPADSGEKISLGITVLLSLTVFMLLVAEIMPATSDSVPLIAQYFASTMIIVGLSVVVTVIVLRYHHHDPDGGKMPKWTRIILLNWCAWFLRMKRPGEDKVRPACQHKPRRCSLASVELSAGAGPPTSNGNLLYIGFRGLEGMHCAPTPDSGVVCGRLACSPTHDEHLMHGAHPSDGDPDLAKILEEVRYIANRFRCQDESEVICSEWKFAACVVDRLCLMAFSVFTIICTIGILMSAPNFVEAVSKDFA

c1cc2c(cc1-c1nnc(N3CCN4CCC3CC4)o1)OCO2 [Compound A1, 4-(5-Benzo[1,3]-dioxol-5-yl-[1,3,4]oxadiazol-2-yl)-1,4-diaza-bicyclo[3.2.2]nonane Fumaric Acid Salt]
IC50: < 10 nM
